Test results taken from patent US20040097728A1, “Method for producing anellated tetrahydro-{1h}-triazoles” (priority 2000, published 2004).

What was measured:
CHEAL = assay: greenhouse herbicidal action, post-emergence treatment; type: in vivo, lambsquarters (goosefoot); conditions: post-emergence method, application rates of 7.8 and 3.9 g of a.s./ha
Excerpt: (§1) The seeds of the test plants were sown separately for each species. For the post-emergence treatment, the test plants were first grown to a height of 3 to 15 cm, depending on the plant habit, and then treated with the active compounds which had been suspened or emulsified in water. To this end, the test plants were either sown directly and grown in the same containers, or they were first grown separately as seedlings and transplanted into the test containers a few days prior to the treatment. The application rates for the post-emergence treatments were 62.5, 31.2, 15.6, 7.8 and 3.9 g of a.s./ha. Depending on the species, the plants were kept at 10-25° C. or 20-35° C. The test period extended over 2 to 4 weeks. During this time, the plants were tended, and their response to the individual treatments was evaluated. Evaluation was carried out using a scale from 0 to 100. 100 means no emergence of the plants, or complete destruction of at least the above-ground parts, and O means no damage, or normal course of growth. The plants used in the greenhouse experiments were of the following species: [table]

AMARE = assay: as above; type: in vivo, common amaranth; conditions: post-emergence method, application rates of 7.8 and 3.9 g of a.s./ha
Excerpt: as §1

ABUTH = assay: as above; type: in vivo, velvet leaf; conditions: post-emergence method, application rates of 7.8 and 3.9 g of a.s./ha
Excerpt: as §1

PHBPU = assay: as above; type: in vivo, common morning glory; conditions: post-emergence method, application rates of 7.8 and 3.9 g of a.s./ha
Excerpt: as §1

melting point | Compound | herbicidal activity against CHEAL (CHEAL) | herbicidal activity against AMARE (AMARE) | herbicidal activity against ABUTH (ABUTH) | herbicidal activity against PHPBU (PHBPU)
– | 2-[4-Chloro-2-fluoro-5-(2-propynyloxy)phenyl]-3-thiotetrahydro-1H-(1,2,4)triazolo[1,2-c][1,3,4]oxadiazin-1-one [Example 5] | very good | very good | very good | very good
226 to 227 °C | C#CCOc1cc(-n2c(=O)n3n(c2=S)COCC3)c(F)cc1C#N [Example 75, 2-[4-Cyano-2-fluoro-5-(propargyloxy)phenyl]-3-thioxotetrahydro-1H-[1,2,4]-triazolo-[1,2-c][1,3,4]-oxadiazin-1-one] | – | – | – | –
